# Measured values published in US7288659B2, “Acylaminothiazole derivatives, their preparation and therapeutic use” (Sanofi-Aventis, priority 2001, dated 2007).
row,melting point [°C],SMILES
1,74,"Cc1nc(NC(=O)[C@H](C)NC(=O)Cc2cc(F)cc(F)c2)sc1-c1ccccc1COC(C)C [compound 27, (2S)-2-{[2-(3,5-difluorophenyl)acetyl]amino}-N-{5-[2-(isopropoxymethyl)phenyl]-4-methyl-1,3-thiazol-2-yl}propanamide]"
2,141,"Cc1nc(NC(=O)[C@H](C)NC(=O)Cc2cc(F)cc(F)c2)sc1-c1ccccc1COC1CCCC1 [compound 28, (2S)-N-(5-{2-[(cyclopentyloxy)methyl]phenyl}-4-methyl-1,3-thiazol-2-yl)-2-{[2-(3,5-difluorophenyl)-acetyl]amino}propanamide]"
3,136,"C[C@H](NC(=O)Cc1ccc(F)c(F)c1)C(=O)Nc1ncc(-c2ccccc2COC2CCCCC2)s1 [compound 30, (2S)-N-(5-{2-[(cyclohexyloxy)methyl]phenyl}-1,3-thiazol-2-yl)-2-{[2-(3,4-difluorophenyl)acetyl]amino}-propanamide]"
4,68,"CC[C@H](NC(=O)Cc1cc(F)cc(F)c1)C(=O)Nc1ncc(-c2ccccc2COC2CCCCC2)s1 [compound 32, (2S)-N-(5-{2-[(cyclohexyloxy)methyl]phenyl}-1,3-thiazol-2-yl)-2-{[2-(3,5-difluorophenyl)acetyl]amino}-butanamide]"
5,74,"COc1ccc(CC(=O)N[C@@H](C)C(=O)Nc2ncc(-c3ccccc3COC3CCCCC3)s2)cc1 [compound 33, (2S)-N-(5-{2-[(cyclohexyloxy)methyl]phenyl}-1,3-thiazol-2-yl)-2-{[2-(4-methoxyphenyl)acetyl]amino}-propanamide]"
6,94,"COc1cccc(CC(=O)N[C@@H](C)C(=O)Nc2ncc(-c3ccccc3COC3CCCCC3)s2)c1 [compound 34, (2S)-N-(5-{2-[(cyclohexyloxy)methyl]phenyl}-1,3-thiazol-2-yl)-2-{[2-(3-methoxyphenyl)acetyl]amino}-propanamide]"
7,73,"CC(C)(C)[C@H](NC(=O)Cc1cc(F)cc(F)c1)C(=O)Nc1ncc(-c2ccccc2COC2CCCCC2)s1 [compound 37, (2S)-N-(5-{2-[(cyclohexyloxy)methyl]phenyl}-1,3-thiazol-2-yl)-2-{[2-(3,5-difluorophenyl)acetyl]amino}-3,3-dimethylbutanamide]"
8,173,"CCOCc1ccccc1-c1cnc(NC(=O)[C@H](C)NC(=O)Cc2cc(F)cc(F)c2)s1 [compound 41, (2S)-2-{[2-(3,5-difluorophenyl)acetyl]amino)-N-(5-[2-(ethoxymethyl)phenyl]-1,3-thiazol-2-yl}propanamide]"
9,136,"CC(C)OCc1cccc(-c2cnc(NC(=O)[C@H](C)NC(=O)Cc3cc(F)cc(F)c3)s2)c1 [compound 45, (2S)-2-{[2-(3,5-difluorophenyl)acetyl]amino}-N-(5-{3-(isopropoxymethyl)phenyl}-1,3-thiazol-2-yl)propanamide]"
10,77.6,"CCCC[C@H](NC(=O)Cc1cc(F)cc(F)c1)C(=O)Nc1ncc(-c2ccccc2COC2CCCCC2)s1 [compound 47, (2S)-N-(5-{2-[(cyclohexyloxy)methyl]phenyl}-1,3-thiazol-2-yl)-2-{[2-(3,5-difluorophenyl)acetyl]amino}-hexanamide]"
11,236,"C[C@H](NC(=O)Cc1cc(F)cc(F)c1)C(=O)Nc1ncc(-c2ccccc2COC2CCCC2)s1 [compound 49, (2S)-N-(5-{2-[(cyclopentyloxy)methyl]phenyl}-1,3-thiazol-2-yl)-2-{[2-(3,5-difluorophenyl)acetyl]amino}-propanamide]"
12,99.4,"CCC[C@H](NC(=O)[C@H](O)c1cc(F)cc(F)c1)C(=O)Nc1nc(C)c(-c2ccccc2COC2CCCCC2)s1 [compound 53, (2S)-N-(5-{2-[(cyclohexyloxy)methyl]phenyl}-4-methyl-1,3-thiazol-2-yl)-2-{[(2R)-2-(3,5-difluorophenyl)-2-hydroxyacetyl]amino}pentanamide]"

# More lines, now with the values behind:
row,SMILES,melting point [°C]
1,"CC(C)[C@H](NC(=O)Cc1cc(F)cc(F)c1)C(=O)Nc1ncc(-c2ccccc2COC2CCCCC2)s1 [compound 31, (2S)-N-(5-{2-[(cyclohexyloxy)methyl]phenyl}-1,3-thiazol-2-yl)-2-{[2-(3,5-difluorophenyl)acetyl]amino}-3-methylbutanamide]",87
2,"COc1cc(CC(=O)N[C@@H](C)C(=O)Nc2ncc(-c3ccccc3COC3CCCCC3)s2)cc(OC)c1 [compound 35, (2S)-N-(5-{2-[(cyclohexyloxy)methyl]phenyl}-1,3-thiazol-2-yl)-2-{[2-(3,5-dimethoxyphenyl)acetyl]amino}-propanamide]",73
3,"CC(C)C[C@H](NC(=O)Cc1cc(F)cc(F)c1)C(=O)Nc1ncc(-c2ccccc2COC2CCCCC2)s1 [compound 36, (2S)-N-(5-{2-[(cyclohexyloxy)methyl]phenyl}-1,3-thiazol-2-yl)-2-{[2-(3,5-difluorophenyl)acetyl]amino}-4-methylpentanamide]",67
4,"C[C@H](NC(=O)Cc1cc(F)cc(F)c1)C(=O)Nc1ncc(-c2ccc(COC3CCCCC3)cc2)s1 [compound 39, (2S)-N-(5-{4-[(cyclohexyloxy)methyl]phenyl}-1,3-thiazol-2-yl)-2-{[2-(3,5-difluorophenyl)acetyl]amino}-propanamide]",155
5,"CCC[C@H](NC(=O)Cc1cc(F)cc(F)c1)C(=O)Nc1ncc(-c2ccccc2COC2CCCCC2)s1 [compound 42, (2S)-N-(5-{2-[(cyclohexyloxy)methyl]phenyl}-1,3-thiazol-2-yl)-2-{[2-(3,5-difluorophenyl)acetyl]amino}-pentanamide]",134
6,"C[C@H](NC(=O)Cc1cc(F)cc(F)c1)C(=O)Nc1ncc(-c2cccc(COCC3CCCCC3)c2)s1 [compound 43, (2S)-N-(5-{3-[(cyclohexylmethoxy)methyl]phenyl}-1,3-thiazol-2-yl)-2-{[2-(3,5-difluorophenyl)acetyl]amino}propanamide]",144
7,"C[C@H](NC(=O)Cc1cc(F)cc(F)c1)C(=O)Nc1ncc(-c2ccc(COCC3CCCCC3)cc2)s1 [compound 46, (2S)-N-(5-{4-[(cyclohexylmethoxy)methyl]phenyl}-1,3-thiazol-2-yl)-2-{[2-(3,5-difluorophenyl)acetyl]-amino}propanamide]",166
8,"C[C@H](NC(=O)Cc1cccc(OC(F)(F)F)c1)C(=O)Nc1ncc(-c2ccccc2COC2CCCCC2)s1 [compound 48, (2S)-N-(5-{2-[(cyclohexyloxy)methyl]phenyl}-1,3-thiazol-2-yl)-2-{[2-(3-trifluoromethoxyphenyl)acetyl]-amino}propanamide]",60
9,"CCC[C@H](NC(=O)Cc1cc(F)cc(F)c1)C(=O)Nc1nc(C)c(-c2ccccc2COC2CCCCC2)s1 [compound 52, (2S)-N-(5-{2-[(cyclohexyloxy)methyl]phenyl}-4-methyl-1,3-thiazol-2-yl)-2-{[2-(3,5-difluorophenyl)-acetyl]amino}pentanamide]",94
10,"C[C@H](NC(=O)Cc1cc(F)cc(F)c1)C(=O)Nc1ncc(-c2ccccc2CSC2CCCCC2)s1 [compound 54, (2S)-N-(5-{2-[(cyclohexylsulfanyl)methyl]phenyl}-1,3-thiazol-2-yl)-2-{[2-(3,5-difluorophenyl)acetyl]-amino}propanamide]",91.6
